The values that follow come from ChEMBL document CHEMBL1201862, “PubChem BioAssay data set” (2004).

Common to all, as to experiment: NCI-60 cell line screen, 48 h
Assay [1] relates to UO-31.
Assay [2] deals with T47D.
Assay [3] relates to COLO 205.
Assay [4] deals with SF-295.
Assay [5] relates to SNB-19.
The test system of assay [6] is MOLT-4.
Assay [7] relates to MDA-N.
Assay [8] deals with SR.
Assay [9] relates to UACC-62.
The test system of assay [10] is NCI-H226.
The subject of assay [11] is HCC 2998.
The subject of assay [12] is HCT-116.
Assay [13] has as its system RPMI-8226.
In assay [14] the test system is NCI/ADR-RES.
The subject of assay [15] is DU-145.
Assay [16] concerns SNB-75.
The test system of assay [17] is SF-268.
Assay [18] deals with SW-620.
For assay [19], the system named is NCI-H522.
The test system of assay [20] is SK-MEL-28.

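Values below derive from 48-hour exposures of cells grown in 96-well plates, with endpoints linearly interpolated between the two concentrations bracketing the appropriate inhibition level. GI50 marks 50% less growth.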 Active and inactive are the calls of the source. Rule as the data show it: active = GI50 up to about 1.1 µM and inactive = higher. Where a SMILES comes first, the peptide text is derived from it. [ ]: non-standard residue; d: D form. ξ: configuration not given here. ξThz(5,5-Me2) = CC1(C)SCNC1C(=O)O

For `OC1CSc2nc3ccccc3n2C1` (configuration not stated), the GI50 in [1], in assay [2], in assay [3], in assay [4], in [5] and in assay [6] was > 100 µM (inactive) throughout. In addition, the GI50 in assay [7], in [8], in assay [9], in assay [10], in [11] and in assay [12] was > 100 µM (inactive) each time. The GI50 in assay [13] was > 100 µM (inactive); in assay [14], > 100 µM (inactive); in [15] it was > 100 µM (inactive); in [16] it was 17.9 µM (inactive); in [17], > 100 µM (inactive); in assay [18], > 100 µM (inactive).
As for `COc1ccc(OC)c(/C=C/c2ccnc3ccccc23)c1`, the GI50 in [1] was 0.458 µM (active); in assay [2] it was 1.63 µM (inactive); in assay [3], 0.277 µM (active); in [4] it was 0.332 µM (active); in assay [19] it was 0.281 µM (active); in assay [5], 0.631 µM (active). Besides, the GI50 was 0.574 µM (active) in assay [20]; 0.519 µM (active) in assay [6]; 0.156 µM (active) in assay [7]; 0.277 µM (active) in assay [8]; 0.307 µM (active) in [9]; 0.441 µM (active) in assay [10]. Further, the GI50 was 1.24 µM (inactive) in assay [11]; 0.377 µM (active) in [12]; 0.773 µM (active) in assay [13]; 0.255 µM (active) in assay [14]; 0.525 µM (active) in assay [15]; 0.647 µM (active) in assay [17]. For the same molecule, the GI50 in [18] was 0.366 µM (active).
For `CCOC(=O)CCC(C(=O)OCC)n1nnc2cc(Nc3c(C)[n+]([O-])c4ccc(Cl)cc4[n+]3[O-])ccc21` (configuration not stated), the GI50 in assay [1] is 65.5 µM (inactive); in [2], 39.9 µM (inactive); in assay [3], 44.8 µM (inactive); in assay [4], 78 µM (inactive); in assay [19], > 100 µM (inactive); in assay [5], > 100 µM (inactive). Besides, the GI50 in assay [6] was 44.2 µM (inactive); in [7] it was > 100 µM (inactive); in assay [8], 48.6 µM (inactive); in assay [9], 63.5 µM (inactive); in [10], 26.9 µM (inactive); in assay [12], 69.5 µM (inactive). Moreover, the GI50 in [13] is 47.2 µM (inactive); in assay [14], 47.1 µM (inactive); in [15] it was > 100 µM (inactive); in assay [16] it was 93.1 µM (inactive); in [17] it was 34.8 µM (inactive); in [18], > 100 µM (inactive).
Regarding `COc1ccc(OC)c(C2CCc3cnc4nc(N)nc(N)c4c3C2)c1` (configuration not stated), the GI50 in assay [1] was 37.4 µM (inactive); in [2], > 100 µM (inactive); in assay [3], > 100 µM (inactive); in assay [4], 56.2 µM (inactive); in assay [19], > 100 µM (inactive); in assay [5] it was > 100 µM (inactive). Further, the GI50 is > 100 µM (inactive) in assay [20]; > 100 µM (inactive) in assay [6]; 55.5 µM (inactive) in assay [7]; 56.9 µM (inactive) in assay [8]; 74 µM (inactive) in assay [9]; > 100 µM (inactive) in assay [11]. Besides, the GI50 is 46 µM (inactive) in assay [12]; > 100 µM (inactive) in assay [13]; > 100 µM (inactive) in assay [14]; > 100 µM (inactive) in assay [15]; 19.7 µM (inactive) in assay [16]; > 100 µM (inactive) in [17]. Further, the GI50 in [18] is > 100 µM (inactive).
On to `NC(c1ccccc1)(C(F)(F)F)P1(=O)OC(=O)c2ccccc2O1` (configuration not stated), for which the GI50 in [1], in assay [2], in [3], in [4], in assay [5] and in assay [20] was > 100 µM (inactive) in each case. Also, the GI50 in [6] is 48.8 µM (inactive); in [7] it was > 100 µM (inactive); in assay [8] it was 71.8 µM (inactive); in [9], > 100 µM (inactive); in assay [10], > 100 µM (inactive); in [11], > 100 µM (inactive). In addition, the GI50 in [12], in [13], in [14], in [15], in assay [16] and in [17] was > 100 µM (inactive) each time. Also, the GI50 in [18] was > 100 µM (inactive).
As to `Cc1nc2c(n1CCCl)C(=O)c1ccccc1C2=O`, the GI50 in [2] was > 10 µM (inactive); in [3], 14 µM (inactive); in assay [4] it was 21.4 µM (inactive); in assay [19], 16.7 µM (inactive); in assay [5], 39.1 µM (inactive); in [20] it was 42.8 µM (inactive). The GI50 was 12.9 µM (inactive) in assay [6]; 18.7 µM (inactive) in assay [7]; 28.8 µM (inactive) in assay [8]; 13 µM (inactive) in [9]; 18.7 µM (inactive) in [10]; 21.7 µM (inactive) in assay [11]. For the same molecule, the GI50 in assay [12] was 16.1 µM (inactive); in assay [13], 58.6 µM (inactive); in assay [14], 16.2 µM (inactive); in [15] it was 35.4 µM (inactive); in assay [16], 14.5 µM (inactive); in assay [17], 22 µM (inactive). Further, the GI50 in assay [18] is 23 µM (inactive).
Consider `Cc1ccc(O)c(Cc2nc3ccccc3nc2-c2cccc(Br)c2)c1`, for which the GI50 in assay [1] was 89.1 µM (inactive); in assay [2], > 100 µM (inactive); in assay [3], > 100 µM (inactive); in assay [4] it was > 100 µM (inactive); in [19], 44.2 µM (inactive); in assay [5], 19.9 µM (inactive). Also, the GI50 is 25.2 µM (inactive) in assay [6]; > 100 µM (inactive) in [7]; 33.2 µM (inactive) in assay [8]; > 100 µM (inactive) in [9]; > 100 µM (inactive) in assay [10]; 48.5 µM (inactive) in assay [12]. Moreover, the GI50 in assay [13] is 47.3 µM (inactive); in assay [14], > 100 µM (inactive); in [15], > 100 µM (inactive); in assay [16], > 100 µM (inactive); in assay [17], > 100 µM (inactive); in [18], 86.3 µM (inactive).
Consider `NC1=NCC(CN2CCCC2)O1` (configuration not stated), for which the GI50 in assay [1], in assay [2], in [3], in [4], in assay [19] and in [5] was > 100 µM (inactive) each time. Besides, the GI50 in assay [20], in [6], in [7], in assay [8], in assay [9] and in [11] was > 100 µM (inactive) each time. The GI50 in [12], in assay [13], in [14], in assay [15], in assay [16] and in [17] was > 100 µM (inactive) throughout. Besides, the GI50 in [18] was > 100 µM (inactive).
In the case of `C=C(C)[C@@H]1CCC2=C[C@H](OC2=O)[C@@]2(C)C[C@@H]2C2=CC(C)=C(O2)[C@H]1O`, the GI50 in [1] was 60.8 µM (inactive); in assay [2], 28.1 µM (inactive); in assay [3], 33.2 µM (inactive); in assay [4] it was 33.3 µM (inactive); in assay [19] it was 15.1 µM (inactive); in [5], > 75 µM (inactive). The GI50 in assay [20] is 46 µM (inactive); in assay [6], 24.8 µM (inactive); in assay [7], 23.4 µM (inactive); in [8], > 75 µM (inactive); in assay [9] it was 41.1 µM (inactive); in [10], 27.7 µM (inactive). The GI50 in [11] was > 75 µM (inactive); in assay [12], 22.3 µM (inactive); in assay [14] it was 23.6 µM (inactive); in assay [15], 37.3 µM (inactive); in [16], 35.5 µM (inactive); in assay [17] it was 30.7 µM (inactive). In assay [18], the GI50 was > 75 µM (inactive).
`CSCC[C@H](NC(=O)[C@H](CC(C)C)NC(=O)[C@H](Cc1c[nH]cn1)NC(=O)CNC(=O)C1N(C(=O)[C@@H](C)NC(=O)[C@H](Cc2c[nH]c3ccccc23)NC(=O)[C@H](CCC(N)=O)NC(=O)[C@@H](N)CC(N)=O)CSC1(C)C)C(N)=O` (some centres not stated) (H-NQW[dA][ξThz(5,5-Me2)]GHLM-NH2): the GI50 in assay [2], in [3], in assay [4], in assay [19], in [5] and in [20] was > 25 µM (inactive) in each case. The GI50 in assay [6], in [7], in assay [8], in [9], in [10] and in [11] was > 25 µM (inactive) in each case. Moreover, the GI50 in assay [12], in assay [13], in assay [14], in [15], in [16] and in assay [17] was > 25 µM (inactive) in each case. The GI50 in assay [18] was > 25 µM (inactive).
